# Test results published in patent US4410537A, “Pharmaceutical ethers” (Burroughts Wellcome Co., priority 1979, dated 1983).
# Key:
# haemoglobin [1] = assay: Effect on the oxygen-dissociation curve of whole normal human blood in vitro; assay type: cell-based; conditions: for Mean p50: normal human blood, 30 mins, 37° C., control 26.0
# Description: (§1) Compound (Ia) was dissolved in isotonic saline containing sodium bicarbonate 25 mM. […] The mixtures were incubated (30 mins, 37° C.) and the oxygen-dissociation curve for each then measured using a whole-blood spectrophotometer (Hem-O-Scan, Trade Name).
# haemoglobin [2] = assay: Effect on the oxygen-dissociation curve of whole rat blood in vitro; assay type: cell-based
# Description: as §1
# Blood (6.5 ml) from an adult albino rat, exsanguinated via the abdominal aorta under ether anaesthesia, was mixed with acid-citratedextrose anticoagulant (1.5 ml). […] Both samples were incubated (30 mins, 37° C.) and the oxygen-dissociation curve of each measured as in (A).
# haemoglobin [3] = assay: Effect on the oxygen-dissociation curve of whole rat blood in vivo; conditions: for Mean p50: 1 hour, rat
# Description: as §1
# Female albino rats (100-120 g) were fasted for 24 hrs with water available ad lib. Compound (Ia) was dissolved in isotonic saline containing sodium bicarbonate 25 mM and administered to two rats orally (500 mg/kg) and to two rats intravenously (100 mg/kg): appropriate vehicle controls were administered simultaneously to control animals. After 1 hour all animals were exsanguinated via the abdominal aorta under chloroform anaesthesia: 2.5 ml of blood from each was mixed with disodium edetate (anticoagulant) and the oxygen-dissociation curve of each sample measured as in (A).
# haemoglobin [4] = assay: Effect on the oxygen-dissociation curve of whole homozygous human sickle-cell blood in vitro; assay type: cell-based
# Description: Compound (Ia) was dissolved in isotonic saline containing sodium bicarbonate 25 mM. […]
# Homozygous human sickle-cell blood (4 vols) was mixed with acid-citrate-dextrose anticoagulant (1 vol) and a portion of the mixture set aside as a control.
# [5] = system: whole homozygous human sickle-cell blood; assay: Effect on sickling in vitro of whole homozygous human sickle-cell blood; assay type: cell-based; conditions: 3.0 mM, 60 mins, oxygen tension about 28 mm Hg; about 50% sickled at start; controls nearly 70%
# [6] = Acute oral toxicity in mice; conditions: mouse, in vivo, solution in sodium bicarbonate-saline
# anaesthetized rats = assay: Cardiovascular effects in anaesthetized rats; assay type: in vivo, rat
# Description: Male Wistar rats weighing between 250-350 g were used. Anaesthesia was induced with 3-5% halothane in oxygen and maintained with a mixture of chloralose (60 mg/kg i.v.) and pentobarbitone (20 mg/kg i.v.). A femoral vein was cannulated for the administration of drugs and the ipsilateral femoral artery for measuring arterial blood pressure; heart rate was derived from the femoral pulse by a cardiotachometer. Body temperature was maintained at 38° C.
# Five test rats were each given a series of increasing doses of compound (Ia) as a solution in 10%-saturated sodium bicarbonate (saturated sodium bicarbonate solution diluted 1:9). Sufficient time was allowed between doses for the variables to return either to the pre-dose level or to a steady state if full recovery was not attained. Measurements were made 2 mins. after dose or at maximum effect.
# Control rats (3) were given a series of 0.2 ml. injections of the sodium bicarbonate vehicle (up to 15 injections) to assess any effect of sodium bicarbonate and of increasing extracellular fluid volume on blood pressure and heart rate.
smiles,measurement,setting,value
"O=Cc1c(O)cccc1OCCCCC(=O)O [Example 1, 5-(2-formyl-3-hydroxyphenoxy)pentanoic acid]",Mean p50,haemoglobin [1]; 0.3 mM,25.5 mm. Hg
same,Mean p50,haemoglobin [1]; 1.0 mM,21.5 mm. Hg
same,Mean p50,haemoglobin [1]; 3.0 mM,9.0 mm. Hg
same,displacement of the oxygen-dissociation curve,haemoglobin [1]; whole normal human blood in vitro,dose-related left-displacement
same,Mean p50,"haemoglobin [2]; 3.0 mM, rat blood in vitro, 30 mins, 37° C., control 44.5",8.2 mm. Hg
same,displacement of the oxygen-dissociation curve,haemoglobin [2]; whole rat blood in vitro,considerably left-displaced
same,Mean p50,"haemoglobin [3]; 100 mg/kg i.v., vehicle 43.37",22.37 mm. Hg
same,Mean p50,"haemoglobin [3]; 500 mg/kg p.o., vehicle 42.75",10.25 mm. Hg
same,displacement of the oxygen-dissociation curve,haemoglobin [3]; whole rat blood in vivo,considerable left-displacement
same,Mean p50,"haemoglobin [4]; 3.0 mM, homozygous sickle-cell blood, 37° C., minimum 45 mins, three patients, control 51",10 mm. Hg
same,displacement of the oxygen-dissociation curve,haemoglobin [4]; whole homozygous (SS genotype) human sickle-cell blood in vitro,considerable left-displacement
same,proportion of sickled cells,[5],about 3%
same,LD50,[6],~1000 mg/kg
same,change in blood pressure,"anaesthetized rats; 32-128 mg/kg i.v., anaesthetized rats",Significant dose-dependent falls in pressure
same,change in heart rate,"anaesthetized rats; after the 64 mg/kg dose, three rats, not statistically significant",slight tachycardia
same,change in heart rate,"anaesthetized rats; anaesthetized rats, i.v.",no marked changes in heart rate
same,time of blood pressure recovery after each dose,"anaesthetized rats; anaesthetized rats, i.v.",≤ 15 min
same,"change in systolic, diastolic or mean blood pressures","anaesthetized rats; up to 16 mg/kg i.v., anaesthetized rats",no appreciable change
